Source: article PMC4207132 (Journal of Medicinal Chemistry, 2014)

Target: pVHL:EloB:EloC (VBC) complex (Homo sapiens, UniProt P40337)
Format: binding

Chain of pVHL:EloB:EloC (VBC) complex (Q15369 17-112): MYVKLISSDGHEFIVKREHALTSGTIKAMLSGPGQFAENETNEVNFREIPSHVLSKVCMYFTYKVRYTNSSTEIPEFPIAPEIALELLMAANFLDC
Chain of pVHL:EloB:EloC (VBC) complex (P40337 54-213): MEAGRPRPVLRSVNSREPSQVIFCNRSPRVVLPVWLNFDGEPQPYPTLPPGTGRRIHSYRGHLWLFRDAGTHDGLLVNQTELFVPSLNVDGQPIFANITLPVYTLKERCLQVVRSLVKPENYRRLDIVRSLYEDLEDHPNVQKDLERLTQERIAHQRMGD
Chain of pVHL:EloB:EloC (VBC) complex (Q15370 1-104, further chain): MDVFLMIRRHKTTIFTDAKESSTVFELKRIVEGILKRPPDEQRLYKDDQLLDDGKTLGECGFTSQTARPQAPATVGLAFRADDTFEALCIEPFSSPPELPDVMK

increase in affinity compared to 5: ~20 fold
Structure (SMILES): CC(=O)N[C@H](C(=O)N1C[C@H](O)C[C@H]1C(=O)NCc1ccc(-c2scnc2C)cc1)C(C)(C)C [ligand 7, (2S,4R)-1-((S)-2-Acetamido-3,3-dimethylbutanoyl)-4-hydroxy-N-(4-(4-methylthiazol-5-yl)benzyl)pyrrolidine-2-carboxamide]
